Test results taken from ChEMBL document CHEMBL3244015, “Synthesis and biological evaluation of a tetrahydroisoquinoline derivative possessing selective beta2-adrenergic agonist activity” (J Med Chem, 1977).
Calls of active or inactive are those of the source. No cut-off for these calls is given here.

What was measured:
[1] = target: Beta-2 adrenergic receptor (Cavia porcellus) (UniProt Q8K4Z4); test: Agonist activity at beta-2 adrenergic receptor in isolated guinea pig trachea assessed as induction of relaxation of tracheal muscle
Beta-2 adrenergic receptor (Cavia porcellus), sequence (Q8K4Z4 whole entry, looked up): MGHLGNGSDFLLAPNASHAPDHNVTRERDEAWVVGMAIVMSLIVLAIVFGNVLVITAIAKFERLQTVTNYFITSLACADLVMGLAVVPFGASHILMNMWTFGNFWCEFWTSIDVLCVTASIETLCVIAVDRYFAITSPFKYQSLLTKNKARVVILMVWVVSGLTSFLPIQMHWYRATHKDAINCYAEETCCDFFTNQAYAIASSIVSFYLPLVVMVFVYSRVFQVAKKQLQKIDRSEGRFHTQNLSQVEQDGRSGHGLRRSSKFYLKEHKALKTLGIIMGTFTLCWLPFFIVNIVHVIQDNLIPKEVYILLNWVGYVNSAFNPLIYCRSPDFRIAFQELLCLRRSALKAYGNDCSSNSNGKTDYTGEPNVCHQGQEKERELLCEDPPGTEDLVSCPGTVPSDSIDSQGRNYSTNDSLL

[2] = target: Beta-1 adrenergic receptor (Cavia porcellus) (UniProt B0FL73); test: Agonist activity at beta-1 adrenergic receptor in isolated guinea pig atrial preparation assessed as induction of chronotrophic response at 10^-9 to 10^-3 M; details: Cardiac atrium
Beta-1 adrenergic receptor (Cavia porcellus), sequence (B0FL73 1-467): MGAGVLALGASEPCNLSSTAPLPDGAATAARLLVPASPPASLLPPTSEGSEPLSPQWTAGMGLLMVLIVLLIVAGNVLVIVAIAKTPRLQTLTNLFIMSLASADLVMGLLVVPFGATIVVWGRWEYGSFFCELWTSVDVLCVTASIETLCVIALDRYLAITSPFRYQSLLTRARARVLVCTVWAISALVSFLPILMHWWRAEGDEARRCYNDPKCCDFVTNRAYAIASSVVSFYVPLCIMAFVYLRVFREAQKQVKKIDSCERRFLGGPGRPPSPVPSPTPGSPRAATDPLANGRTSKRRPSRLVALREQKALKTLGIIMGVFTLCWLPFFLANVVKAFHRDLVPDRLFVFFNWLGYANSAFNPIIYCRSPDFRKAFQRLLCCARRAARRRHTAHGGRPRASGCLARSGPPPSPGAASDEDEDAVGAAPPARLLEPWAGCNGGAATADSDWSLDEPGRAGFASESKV

[3] = target: Beta-2 adrenergic receptor (Cavia porcellus) (UniProt Q8K4Z4); test: Agonist activity at beta-2 adrenergic receptor in isolated guinea pig trachea assessed as induction of relaxation of tracheal muscle at 10^-9 to 10^-3 M

Row | SMILES | ED50 [1] | Activity [2] | Activity [3]
1 | COc1cc(CC2CNCc3cc(O)c(O)cc32)cc(OC)c1OC (centres undefined) | 1 ×10⁻⁵ M | inactive | –
2 | COc1cc(CC(CN)c2ccc(O)c(O)c2)cc(OC)c1OC (centres undefined) | – | Active | Active
